From patent US20230218548A1 (priority 2020, published 2023)
Read-outs that look alike come from different tables or passages of the source.

Legend:
SARS-CoV-2 = assay: microbe, parasite or virus in culture; type: cell-based, SARS-CoV-2 (USA-WA1/2020)
[1] = molecular target: SARS-CoV-2 envelope (E) protein (Severe acute respiratory syndrome coronavirus 2, UniProt P0DTC4); type: cell-based
HeLa-ACE2 cells = type: cell-based; settings: host cell toxicity, 24 h, read-out: HeLa-ACE2 EC50
Method: Compounds were prepared and plated in 384-well plates as for the infection assay. HeLa-ACE2 cells were seeded in the assay-ready plates at 1.6×10^3 cells/well in assay medium, and plates were incubated for 24 h at 37° C. with 5% CO2. To assess cell viability, the Image-IT DEAD green reagent (Thermo Fisher, 110291) was used according to manufacturer's instructions. Cells were fixed with 4% paraformaldehyde (PFA) and counterstained with DAPI. Fixed cells were imaged using the ImageXpress Micro Confocal High-Content Imaging System (Molecular Devices) with a 10x objective, and total live cells per well quantified in the acquired images using the Live Dead Application Module (MetaXpress).
The in vitro infection assay and the host cell cytotoxicity counterscreen data were uploaded to Genedata Screener, Version 16.0. Data were normalized to neutral (DMSO) […] inhibitor controls (2.5 μM remdesivir for antiviral effect, and 10 μM puromycin for infected host cell toxicity). For the uninfected host cell cytotoxicity counterscreen, 10 μM puromycin (Sigma) was used as a positive control. For dose-response experiments, compounds were tested in technical triplicates, and dose curves were fitted with the four parameter Hill Equation. Replicate data were analyzed using median condensing.

ACE2 = ACE2 (Homo sapiens, UniProt Q9BYF1); assay: Mass spectrometry analysis of S-nitrosylated ACE2 protein; type: cell-based; settings: after exposure to SNOC
Method: Biotin switch was performed as described above. […] The samples were desalted using a ZebaSpin desalting column (Thermo Scientific) pre-equilibrated with PBS, and biotinylated ACE2 protein was immunoprecipitated as described above. Immunoprecipitated ACE2 was eluted in 1% SDS solution and precipitated using methanol-chloroform. Dried pellets were dissolved in 8 M urea/100 mM triethylammonium bicarbonate (TEAB, pH 8.5). Samples were diluted to 2 M urea/100 mM TEAB, and proteins were trypsin digested overnight at 37° C. The digested ACE2 peptides were enriched a second time by biotin-avidin affinity to enrich biotinylated peptides representing the initial SNO sites. After avidin enrichment, peptides were eluted by reduction using tris(2-carboxyethyl)phosphine (TCEP).
Samples were analyzed on a Thermo Orbitrap Eclipse mass spectrometer (Thermo). Samples were injected directly onto a 25 cm, 100 μm ID column packed with ethylene bridged hybrid (BEH) 1.7 μm C18 resin (Waters). Samples were separated at a flow rate of 300 nl/min on a nLC 1200 (Thermo) using a gradient of solution A (0.1% formic acid in water, 5% acetonitrile) and solution B (80% acetonitrile/0.1% formic acid). Specifically, a gradient of 1-25% B over 100 min, an increase to 40% B over 20 min, an increase to 100% B over another 10 min and held at […] for a 10 min was used for a 140 min total run time. […]

[2] = Severe acute respiratory syndrome coronavirus 2, HeLa-ACE2, 24 h

ACE2, sequence (Q9BYF1 18-805): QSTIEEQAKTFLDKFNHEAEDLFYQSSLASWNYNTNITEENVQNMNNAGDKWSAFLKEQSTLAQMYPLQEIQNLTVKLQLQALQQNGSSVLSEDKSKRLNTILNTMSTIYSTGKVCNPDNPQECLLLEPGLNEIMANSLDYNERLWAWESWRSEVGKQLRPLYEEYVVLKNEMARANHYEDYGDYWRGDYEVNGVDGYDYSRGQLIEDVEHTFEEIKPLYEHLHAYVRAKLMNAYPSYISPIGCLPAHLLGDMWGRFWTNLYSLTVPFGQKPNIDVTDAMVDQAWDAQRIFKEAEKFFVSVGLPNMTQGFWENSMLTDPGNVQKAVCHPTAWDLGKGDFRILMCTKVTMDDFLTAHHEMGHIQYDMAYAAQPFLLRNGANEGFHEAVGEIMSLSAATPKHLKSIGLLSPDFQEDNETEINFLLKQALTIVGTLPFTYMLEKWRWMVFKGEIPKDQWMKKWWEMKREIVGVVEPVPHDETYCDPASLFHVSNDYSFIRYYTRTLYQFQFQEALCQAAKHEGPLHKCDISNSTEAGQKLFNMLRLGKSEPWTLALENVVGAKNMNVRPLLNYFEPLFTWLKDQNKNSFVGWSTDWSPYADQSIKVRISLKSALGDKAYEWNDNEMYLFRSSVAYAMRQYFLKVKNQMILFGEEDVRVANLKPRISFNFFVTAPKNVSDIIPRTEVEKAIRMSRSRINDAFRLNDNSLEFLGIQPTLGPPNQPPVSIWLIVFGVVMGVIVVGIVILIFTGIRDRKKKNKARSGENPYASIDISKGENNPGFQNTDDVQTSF
SARS-CoV-2 envelope (E) protein, sequence (P0DTC4 whole entry, looked up): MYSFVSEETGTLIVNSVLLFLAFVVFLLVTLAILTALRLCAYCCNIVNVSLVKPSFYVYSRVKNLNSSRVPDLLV

SMILES	Selectivity Index CC50/EC50 (SARS-CoV-2)	EC50 (SARS-CoV-2; [2])	EC50 (SARS-CoV-2)	CC50 (host cell cytotoxicity) (HeLa-ACE2 cells)	further results
Cc1cccc(/C=N/Nc2cc(N3CCOCC3)nc(OCCc3ccccn3)n2)c1 [Apilimod]	>332.11	0.0072 µM			
CC12CC3CC(C)(C1)CC(N)(C3)C2 [NMT1, memantine]	2.69	53.9 µM			Inhibition of E protein voltage-dependent K+ current [1]: inhibited in a dose-dependent manner
CCC12CC3CC(N)(C1)CC(CO[N+](=O)[O-])(C3)C2 (stereo not shown) [NMT2]			21.9 µM	122 µM	
NC12CC3CC(CC(C3)C1)C2 [NMT4, amantadine]	>2.86	70 µM			
CC12CC3(C)CC(CCN)(C1)CC(CO[N+](=O)[O-])(C2)C3 [NMT6]			3.32 µM	10.5 µM	
NCC1(c2cccc(O[N+](=O)[O-])c2)C2CC3CC(C2)CC1C3 (stereo not shown) [NMT7]			90.7 µM	> 200 µM	
CCC(O[N+](=O)[O-])C12CC3(C)CC(C)(CC(CCN)(C3)C1)C2 (stereo not shown) [NMT8]			3.75 µM	8.37 µM	
CC12CC3(C)CC(CN)(C1)CC(O[N+](=O)[O-])(C2)C3 [NMT9]			> 200 µM	> 200 µM	
COc1ccc(C[C@H](N)C(=O)N[C@H]2[C@@H](O)[C@H](n3cnc4c(N(C)C)ncnc43)O[C@@H]2CO)cc1 [Puromycin]	0.728	0.617 µM			
CCC(CC)COC(=O)[C@H](C)N[P@](=O)(OC[C@H]1O[C@@](C#N)(c2ccc3c(N)ncnn23)[C@H](O)[C@@H]1O)Oc1ccccc1 [Remdesivir]	>16.94	0.142 µM			
N[C@@H](CSN=O)C(=O)O [SNOC]					S-nitrosylated ACE2 sites by mass spectrometry (ACE2): S-nitrosylated ACE2 at Cys^261 and Cys^496
